Patent US10300056B2, “CGRP receptor antagonists” (Heptares Therapeutics Limited, priority 2015, dated 2019)

How the values were obtained:
CGRP receptor = CGRP receptor (Homo sapiens (Human), UniProt O60894+Q16602); conditions: in words, literature; cited from earlier work
[1] = biological target: CGRP receptor ectodomain complex (Homo sapiens (Human), UniProt O60894+Q16602); assay: Receptor kinetic profiling by surface plasmon resonance (Biacore T200); conditions: dissociation half-life, SPR, 25° C.
Sequence of CGRP receptor ectodomain complex (Q16602 23-139): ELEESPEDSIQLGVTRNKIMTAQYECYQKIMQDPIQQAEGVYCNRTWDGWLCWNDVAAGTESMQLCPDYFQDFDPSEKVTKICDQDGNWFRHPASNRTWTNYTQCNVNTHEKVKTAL
Sequence of CGRP receptor ectodomain complex (O60894 27-118): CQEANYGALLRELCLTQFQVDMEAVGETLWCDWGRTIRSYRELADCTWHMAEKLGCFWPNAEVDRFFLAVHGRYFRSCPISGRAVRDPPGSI
Description: Kinetic analyses were run on a Biacore T200 instrument (GE Healthcare Bio-Sciences AB, Uppsala, Sweden) at 25° C. using 0.05 mM EDTA, PBS (10 mM phosphate buffer, 2.7 mM KCl, 137 mM NaCl) pH 7.4, 0.005% v/v Surfactant P20, 5% DMSO as the running buffer. […] The chip was loaded with Ni^2+ and carboxyl groups of the dextran matrix were activated by EDC/NHS. The receptor ectodomain complex (100 nM in running buffer) was then injected and immobilised via the His-tag and amino groups. Two fold dilution series of each compound (five concentrations, in the range 25-40 nM) were injected. Blank-subtracted data were fitted to a 1:1 interaction model to obtain kinetic parameters which are expressed in Table 4 as dissociation half-life (t1/2=(ln 2/off-rate (kd)/60).

[2] = at 24 h after intravenous infusion of a 2.5 mg dose; cited from earlier work

Sequence of CGRP receptor (Q16602 23-461): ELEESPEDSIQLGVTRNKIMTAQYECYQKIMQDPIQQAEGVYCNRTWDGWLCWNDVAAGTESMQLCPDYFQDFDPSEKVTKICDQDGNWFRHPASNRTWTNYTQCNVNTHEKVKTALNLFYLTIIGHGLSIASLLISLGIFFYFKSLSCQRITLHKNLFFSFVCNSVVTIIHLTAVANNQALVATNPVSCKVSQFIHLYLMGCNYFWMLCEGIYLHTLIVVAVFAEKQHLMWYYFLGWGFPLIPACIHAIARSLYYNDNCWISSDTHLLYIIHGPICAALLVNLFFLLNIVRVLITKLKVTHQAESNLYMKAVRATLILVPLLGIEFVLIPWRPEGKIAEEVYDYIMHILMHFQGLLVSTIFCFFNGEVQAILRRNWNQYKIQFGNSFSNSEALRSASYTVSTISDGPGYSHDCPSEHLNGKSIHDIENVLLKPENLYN
Sequence of CGRP receptor (O60894 27-148): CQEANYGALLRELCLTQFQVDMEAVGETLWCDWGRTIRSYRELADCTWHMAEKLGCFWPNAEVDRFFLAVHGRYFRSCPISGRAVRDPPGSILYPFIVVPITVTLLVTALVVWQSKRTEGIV

SMILES: NCCCC[C@H](NC(=O)[C@@H](Cc1cc(Br)c(O)c(Br)c1)NC(=O)N1CCC(N2Cc3ccccc3NC2=O)CC1)C(=O)N1CCN(c2ccncc2)CC1 [olcegepant]
- kinetics at the CGRP receptor (CGRP receptor): slow kinetics
- CGRP t1/2 [1]: 30 min
- headache-free rate [2]: 47%
